#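 How tested: cells in 96-well plates exposed to compound for 48 hours at five concentrations. TGI denotes the concentration required for complete inhibition of growth.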
# Tests used:
# Assay in all cases: DTP human tumour cell line panel, 48 h
# HCT-116 colon = test system: HCT-116 colon
# SR leukemia = test system: SR leukemia
# HCT-15 colon = test system: HCT-15 colon
# 786-0 renal = test system: 786-0 renal
# HOP-62 NSCLC = test system: HOP-62 NSCLC
# UACC-257 melanoma = test system: UACC-257 melanoma
# HCC-2998 colon = test system: HCC-2998 colon
# MDA-MB-231 breast = test system: MDA-MB-231 breast
# MDA-MB-435 = test system: MDA-MB-435
# MDA-N = test system: MDA-N
structure (smiles),measurement,setting,value
S=c1sc2c(Cl)ncnc2n1-c1ccccc1,TGI,HCT-116 colon,18.6 µM
same,TGI,SR leukemia,9.36 µM
same,TGI,HCT-15 colon,28.4 µM
same,TGI,786-0 renal,29.2 µM
same,TGI,HOP-62 NSCLC,29.3 µM
same,TGI,UACC-257 melanoma,33.6 µM
same,TGI,HCC-2998 colon,31.1 µM
C=C(C)[C@@]1(O)O[C@H]2C[C@@]3(C)OC(=CC3=O)/C(C)=C\[C@@H]3OC(=O)[C@@]1(C)[C@H]32,TGI,HCT-116 colon,20.6 µM
same,TGI,MDA-MB-231 breast,43.9 µM
same,TGI,SR leukemia,> 64.4 µM
same,TGI,HCT-15 colon,44 µM
same,TGI,786-0 renal,26.7 µM
same,TGI,HOP-62 NSCLC,> 100 µM
same,TGI,UACC-257 melanoma,> 63.5 µM
same,TGI,MDA-MB-435,> 100 µM
same,TGI,HCC-2998 colon,35.1 µM
CN(C)CCNc1ccc(C(=O)NCCCN(C)CCCNC(=O)c2ccc(NCCN(C)C)c3c(=O)c4ccccc4[nH]c23)c2[nH]c3ccccc3c(=O)c12,TGI,HCT-116 colon,0.409 µM
same,TGI,MDA-MB-231 breast,0.388 µM
same,TGI,HCT-15 colon,38.5 µM
same,TGI,786-0 renal,1.66 µM
same,TGI,HOP-62 NSCLC,1.5 µM
same,TGI,MDA-N,0.583 µM
same,TGI,UACC-257 melanoma,3.25 µM
same,TGI,MDA-MB-435,0.286 µM
same,TGI,HCC-2998 colon,0.135 µM
C1CC2=C(C1)[Se]C(=C1Sc3nsnc3S1)[Se]2,TGI,HCT-116 colon,> 100 µM
same,TGI,MDA-MB-231 breast,> 100 µM
same,TGI,HCT-15 colon,> 100 µM
same,TGI,786-0 renal,> 100 µM
same,TGI,HOP-62 NSCLC,> 100 µM
same,TGI,MDA-N,62 µM
same,TGI,UACC-257 melanoma,> 100 µM
same,TGI,MDA-MB-435,> 100 µM
same,TGI,HCC-2998 colon,> 100 µM
O=C(COc1ccc(OCC(=O)N2C(=O)CC(=O)N(c3ccccc3)C2=S)cc1)N1C(=O)CC(=O)N(c2ccccc2)C1=S,TGI,HCT-116 colon,60.1 µM
same,TGI,MDA-MB-231 breast,> 100 µM
same,TGI,HCT-15 colon,> 100 µM
same,TGI,786-0 renal,> 100 µM
same,TGI,MDA-N,> 100 µM
same,TGI,UACC-257 melanoma,> 100 µM
same,TGI,MDA-MB-435,> 100 µM
same,TGI,HCC-2998 colon,> 100 µM
Clc1ccc2c(SCC3CO3)c3ccccc3nc2c1 (configuration not stated),TGI,HCT-116 colon,3.04 µM
same,TGI,MDA-MB-231 breast,6.64 µM
same,TGI,SR leukemia,4.56 µM
same,TGI,HCT-15 colon,3.34 µM
same,TGI,786-0 renal,3.44 µM
same,TGI,HOP-62 NSCLC,17.6 µM
same,TGI,UACC-257 melanoma,9.3 µM
same,TGI,MDA-MB-435,20.2 µM
same,TGI,HCC-2998 colon,9.55 µM
O=C(Nc1cccc2ccccc12)Oc1ccccc1C1CCCCC1,TGI,HCT-116 colon,32.2 µM
same,TGI,SR leukemia,57 µM
same,TGI,HCT-15 colon,33.9 µM
same,TGI,HOP-62 NSCLC,33.1 µM
same,TGI,UACC-257 melanoma,29.8 µM
same,TGI,HCC-2998 colon,34.3 µM
O=C(CSc1nnc(-c2ccc(N=Cc3ccc(Cl)cc3)cc2)o1)Nc1ccccc1Cl,TGI,HCT-116 colon,> 100 µM
same,TGI,SR leukemia,> 100 µM
same,TGI,HCT-15 colon,> 100 µM
same,TGI,786-0 renal,> 100 µM
same,TGI,HOP-62 NSCLC,> 100 µM
same,TGI,UACC-257 melanoma,> 100 µM
CNC(=O)c1ccccc1-[s+]1c2ccccc2c(=O)n1C (configuration not stated),TGI,HCT-116 colon,> 100 µM
same,TGI,MDA-MB-231 breast,> 100 µM
same,TGI,HCT-15 colon,> 100 µM
same,TGI,786-0 renal,> 100 µM
same,TGI,HOP-62 NSCLC,> 100 µM
same,TGI,MDA-N,> 100 µM
same,TGI,UACC-257 melanoma,> 100 µM
same,TGI,MDA-MB-435,> 100 µM
O=C(O)CCCl,TGI,HCT-116 colon,> 5000 µM
same,TGI,SR leukemia,> 5000 µM
same,TGI,HCT-15 colon,> 5000 µM
same,TGI,786-0 renal,> 5000 µM
same,TGI,HOP-62 NSCLC,> 5000 µM
same,TGI,UACC-257 melanoma,> 5000 µM

# — PubChem BioAssay (NCI)
